According to US11708391B2, “Rapaglutins, novel inhibitors of GLUT and use thereof” (The Johns Hopkins University, priority 2016, dated 2023):
Entries after “also recorded” stand apart in the source; their conditions may differ. Like-named read-outs stand apart in the source and are kept apart here.

Experiments:
[1] = test system: NFAT; assay: NFAT reporter gene assay; assay type: cell-based
Description: (§1) FIGS. 28A-28D. (a) A18 and E11 inhibit NFAT and A18, but not E11, stimulates SRE reporter gene signal. (b) E11 inhibits NFAT, NF-κB and IL2, but not MEF-2 or AP-1 pathways, in Jurkat T cells. (c) Glucose inhibitor stimulates SRE reporter gene signal.
Both A18 and E11 have shown immunosuppressive activity, blocking NFAT reporter gene activation and IL-2 production (see e.g., FIG. 28). As such, they can be used as immunosuppressive agents that have applications in treating organ transplantation rejection and all kinds of autoimmune diseases. […]

[2] = test system: SRE; assay: SRE reporter gene assay; assay type: cell-based
Description: as §1

[3] = test system: ERK, AKT or JNK; assay: Western blot, phosphorylation of ERK, AKT or JNK; assay type: cell-based
Description: Whether A18 and E11 treatment affect key cell growth signaling proteins was examined next. […] But it has no effects on the phosphorylation of ERK, AKT or JNK (FIG. 7). As previously reported, AMPK is likely to act as the key link between the ATP reduction and the subsequent cancer cell inhibition. (FIGS. 7 and 23-25). Based on the data reported here, the working model for A18 and E11 was proposed as outlined in FIG. 8. […] These led to upregulation of phosphorylation of AMPK and downregulation of phosphorylation of S6K. […] (FIG. 8)

[4] = target: T1, GLUT1 (Homo sapiens, UniProt P11166); assay: 3-O-methyl-D-[3H] glucose uptake in RBC-derived ghosts; assay type: cell-based
T1 construct: endogenous in cells; host or cells: erythrocyte (RBC-derived) ghosts
T1 sequence (P11166 1-492): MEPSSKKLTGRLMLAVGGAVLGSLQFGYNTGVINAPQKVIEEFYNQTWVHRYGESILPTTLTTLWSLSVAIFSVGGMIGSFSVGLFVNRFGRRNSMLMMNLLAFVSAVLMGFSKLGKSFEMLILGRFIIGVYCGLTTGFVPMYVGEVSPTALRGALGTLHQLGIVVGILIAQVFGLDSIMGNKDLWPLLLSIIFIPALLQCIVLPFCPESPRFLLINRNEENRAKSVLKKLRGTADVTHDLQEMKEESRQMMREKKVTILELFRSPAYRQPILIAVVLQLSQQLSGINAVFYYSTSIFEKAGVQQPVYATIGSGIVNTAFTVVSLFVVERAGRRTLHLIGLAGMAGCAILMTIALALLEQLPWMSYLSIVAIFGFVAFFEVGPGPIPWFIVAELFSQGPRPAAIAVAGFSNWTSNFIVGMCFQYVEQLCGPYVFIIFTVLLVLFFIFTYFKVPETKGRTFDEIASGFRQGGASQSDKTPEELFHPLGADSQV
Description: FIGS. 3A-3D. Inhibition of Glucose Transport by A18 and E11. (a) Inhibition of 3-O-methyl-D-[3H] glucose uptake in human red blood cells by A18. (b) Inhibition of 3-O-methyl-D-[3H] glucose uptake in human red blood cells by E11. (c) Inhibition of 3-O-methyl-D-[3H] glucose uptake in erythrocyte ghosts by A18. (d) Inhibition of 3-O-methyl-D-[3H] glucose uptake in erythrocyte ghosts by E11.
A18 and E11 were previously shown to have a broad spectrum of anticancer activity. […] To test this hypothesis, red blood cells (RBCs) were applied as a cell model because RBCs express Glut1 as their sole glucose transporter and have been frequently used in studying glucose transport. […] To eliminate other possibilities, the glucose uptake assays were repeated in RBC-derived ghosts, in which all the intracellular proteins and enzymes were removed and only membrane-bound and membrane-associated proteins remained. […] (see FIGS. 2, 3 and 15-18)

[5] = test system: HEK293T; assay: alamar blue assay, HEK293T; assay type: cell-based
Description: Dose-dependent inhibition of cell proliferation by A18 and E11 was next evaluated in several other human cancer cell lines, including breast cancer HCC1954, pancreatic cancer PANC10.05, leukemia Jurkat T and colon cancer RKO (FIGS. 1b and 1c). […] (FIGS. 1 and 9; Table 3)
Up to now, at least 14 different isoforms of GLUTs have been identified in human cells. It was then asked whether A18 and E11 are specific inhibitors of GLUT1. To answer this question, colon cancer DLD-1 wild type and GLUT1 gene knock out cell lines were chosen as a cell model (FIG. 4a). […] GLUTs that are most relevant to cancer are Glut1 and Glut3. To obtain additional evidence, Glut1 and Glut3 in HEK 293T cells were overexpressed and an alamar blue cell viability assay was performed again. […] (see FIGS. 4, 19, 20, 26; Table 4).

[6] = test system: HEK 293T cells
[7] = test system: NF-κB; assay: NF-κB pathway reporter in Jurkat T cells; assay type: cell-based
Description: as §1

[8] = test system: HEK 293T cells; assay: Western blot for DNA damage and apoptosis markers in HEK 293T; conditions: 72 h (DNA damage), 24 h (apoptosis)

Row | Molecule | NFAT reporter gene signal [1] | SRE reporter gene signal [2] | phosphorylation of ERK, AKT or JNK [3] | IC50 [4] [nM] | IC50 ([5]; Homo sapiens, HEK-293T, HEK293T, Table 3) [nM] | IC50 ([5]; Homo sapiens, HEK-293T, HEK 293T, Table 4) [nM] | DNA damage or apoptosis (phosphor-p53, active caspase 3, 7 and 9) [6] | NF-κB pathway [7] | IC50 glucose uptake [4] | IC50 ([5]; HEK293T, Table 3) [nM] | IC50 ([5]; HEK 293T, Table 4) [nM] | DNA damage or apoptosis (phosphor-p53, active caspase 3, 7 and 9) [8]
1 | CC[C@@H](C)[C@H]1C(=O)NCC(=O)N(C)CC/C=C/C(=O)OCC(C)(C)C(=O)C(=O)N2CCCC[C@H]2C(=O)O[C@H](CCc2ccc(OC)c(OC)c2)c2cccc(c2)NC(=O)CCC(=O)N(C)[C@@H](CC(C)C)C(=O)N[C@H](Cc2ccccc2)C(=O)N1C [A18] | inhibit; also recorded: blocking | stimulates | no effects | 49.5 | 110 | 69 | do not induce DNA damage or apoptosis |  |  |  |  | 
2 | Gly-^MSerBu-Nal-^MAla [E11] | inhibit; also recorded: blocking |  | no effects |  |  |  |  | inhibits | totally lost its inhibitory activity | 154 | 84.8 | do not induce DNA damage or apoptosis
